Results reported in patent US11999739B2, “Antimicrobials methods of making and using the same” (BIOVERSYS AG, priority 2016, dated 2024).

Legend:
[1] = system: Staphylococcus aureus (S. aureus) 11540 strain; test: Standard microdilution MIC assay, S. aureus; assay type: cell-based
Method: (§1) The in vitro activity of the compounds of the present disclosure can be determined. Antimicrobial testing is typically performed to determine the minimum inhibitory concentration (MIC). Minimum inhibitory concentrations (MICs) are determined by the microdilution method in a final volume of 100 μl according to protocols outlined by The Clinical and Laboratory Standards Institute (CLSI). Performance standards for reference strains are assessed within the same experimental design to maintain quality control. See, for example, Clinical Laboratory Standards Institute: Methods for dilution antimicrobial susceptibility tests for bacteria that grow aerobically M7-A8. Approved Standard-Eighth Edition. Wayne, PA: CLSI; December 2008; and Clinical Laboratory Standards Institute: Performance Standards for Antimicrobial Susceptibility Testing M100-S20; Approved Standard-Twentieth Edition. Wayne, PA: CLSI; June 2010.
(§2) The compounds of the present disclosure were tested for antimicrobial activity. The Compounds 1-293 were run against Escherichia coli (E co/i) strain ATCC25922 and against Staphylococcus aureus (S. aureus) 11540 strain using a standard microdilution assay to determine minimum inhibitory concentrations (MICs). […] It will be recognized by one skilled in the art that the compounds can be assessed against other bacterial organisms and that the presentation of data for activity against Escherichia coli and Staphylococcus aureus are illustrative and in no way is intended to limit the scope of the present disclosure. The compounds of the present disclosure can be assayed against a range of other microorganisms depending upon the performance activity desired to be gathered. Furthermore, the “+” and “−” representation and the selection of a cutoff value of 16 micrograms/mL is also illustrative and in no way is intended to limit the scope of the present disclosure.

[2] = system: Escherichia coli strain ATCC25922; test: Standard microdilution MIC assay, E. coli; assay type: cell-based
Method: as §1, §2

Compound | MIC [1] [µg/mL] | MIC [2] [µg/mL]
C=C[C@@H](CCNC(C)=N)NCc1ccc(-n2cc3cc(-c4cc(CCC[C@@H](N)CC#N)cc(Cl)c4F)[nH]c3nc2=O)cc1 [Compound 155] | ≤ 16 | ≤ 16
C=C[C@@H](N)CCCc1cc(Cl)c(F)c(-c2cc3cn(-c4ccc(CN[C@H](C=C)CCNC(=N)CF)cc4)c(=O)nc3[nH]2)c1 [Compound 38] | ≤ 16 | ≤ 16
C=CC(CCNC(C)=N)NCc1ccc(-n2cc3cc(-c4cc(CCC(C)(C)CN)cc(Cl)c4F)[nH]c3nc2=O)cc1 (stereo not shown) [Compound 26] | ≤ 16 | ≤ 16
CC(=N)NCC[C@@H]1CCC[C@@H](c2c(F)cc(-n3cc4cc(-c5cc(CCC[C@@H](N)C6CC6)cc(Cl)c5F)[nH]c4nc3=O)cc2F)N1 [Compound 247] | ≤ 16 | ≤ 16
COC(=O)c1ccc(-c2cc3cn(-c4ccc([C@@H]5CCC[C@@H](CCNC(C)=N)N5)cc4)c(=O)nc3[nH]2)cc1CCC[C@H](C)N [Compound 291] | ≤ 16 | ≤ 16
CC(=N)NCC[C@@H]1CCC[C@@H](c2c(F)cc(-n3cc4cc(-c5cc(CCC[C@@H](N)C6CC6)cc(C(F)(F)F)c5)[nH]c4nc3=O)cc2F)N1 [Compound 285] | ≤ 16 | ≤ 16
CC(=N)NCC[C@@H]1CCC[C@@H](c2ccc(-n3cc4cc(-c5cc(CCC[C@H](C)N)cc(Cl)c5F)[nH]c4nc3=O)cn2)N1 [Compound 192] | ≤ 16 | ≤ 16
C=CCC(=N)NCCC(C=C)NCc1ccc(-n2cc3cc(-c4cc(CCC[C@H](C)N)cc(Cl)c4F)[nH]c3nc2=O)cc1 (stereo partly shown) [Compound 33] | ≤ 16 | ≤ 16
CSc1cc(-n2cc3cc(-c4cc(CCC[C@@H](N)CF)cc(C(F)(F)F)c4F)[nH]c3nc2=O)ccc1[C@@H]1CCC[C@@H](CCNC(C)=N)N1 [Compound 255] | ≤ 16 | ≤ 16
CC(=N)NCC[C@@H]1COC[C@@H](c2ccc(-n3cc4cc(-c5cc(CCC[C@H](C)N)cc(Cl)c5F)[nH]c4nc3=O)cc2)N1 [Compound 47] | ≤ 16 | ≤ 16
CC(=N)NCCCN[C@@H](CO)c1ccc(-n2cc3cc(-c4cc(CCC[C@@H](N)C5CC5)cc(Cl)c4F)[nH]c3nc2=O)cc1 [Compound 134] | ≤ 16 | ≤ 16
CSc1cc(-n2cc3cc(-c4cc(CCC[C@@H](N)C5CC5)cc(C(F)(F)F)c4)[nH]c3nc2=O)ccc1[C@@H]1CCC[C@@H](CCNC(C)=N)N1 [Compound 250] | ≤ 16 | ≤ 16
CC(=N)NCC[C@@H]1CCC[C@@H](c2ccc(-n3cc4cc(-c5cc(CCC[C@@H](N)CF)cc(OC(F)(F)F)c5F)[nH]c4nc3=O)cc2)N1 [Compound 236] | ≤ 16 | ≤ 16
CC(=N)NCC[C@@H]1CCC[C@@H](c2ccc(-n3cc4cc(-c5cc(CCC[C@@H](N)CF)cc(C(F)(F)F)c5)[nH]c4nc3=O)cc2F)N1 [Compound 205] | ≤ 16 | ≤ 16
CC(=N)NCC[C@@H]1CCC[C@@H](c2ccc(-n3cc4cc(-c5cc(CCC[C@H](C)N)cc(Cl)c5F)[nH]c4nc3=O)cc2)N1CC(C)C [Compound 369] | ≤ 16 | ≤ 16
C=C[C@H](N)CCCc1cc(Cl)c(F)c(-c2cc3cn(-c4ccc([C@H](C)N[C@@H](C=C)CCNC(C)=N)c(F)c4)c(=O)nc3[nH]2)c1 [Compound 184] | ≤ 16 | ≤ 16
C=C[C@@H](CCNC(=N)CSC)NCc1ccc(-n2cc3cc(-c4cc(CCC[C@H](C)N)cc(Cl)c4F)[nH]c3nc2=O)cc1 [Compound 59] | ≤ 16 | ≤ 16
CC(=N)NCCCNC1(c2ccc(-n3cc4cc(-c5cc(CCC[C@@H](N)C6CC6)cc(Cl)c5F)[nH]c4nc3=O)cc2)CC1 [Compound 143] | ≤ 16 | ≤ 16
C=C[C@@H](CCNC(=N)CF)NCc1ccc(-n2cc3cc(-c4cc(CCC[C@@H](N)C(F)(F)F)cc(Cl)c4F)[nH]c3nc2=O)cc1 [Compound 43] | ≤ 16 | ≤ 16
COC[C@H](N)CCCc1cc(OC(F)(F)F)c(F)c(-c2cc3cn(-c4cc(F)c([C@@H]5CCC[C@@H](CCNC(C)=N)N5)c(F)c4)c(=O)nc3[nH]2)c1 [Compound 280] | ≤ 16 | ≤ 16
N=C(CF)NCC[C@@H]1COC[C@@H](c2ccc(-n3cc4cc(-c5cc(CCC[C@@H](N)C(F)(F)F)cc(Cl)c5F)[nH]c4nc3=O)cc2)N1 [Compound 67] | > 16 | > 16
C=CC(CCNC(=N)CF)NCc1ccc(-n2cc3cc(-c4cc(CCCC(C)(C)N)cc(Cl)c4F)[nH]c3nc2=O)cc1 (stereo not shown) [Compound 22] | ≤ 16 | ≤ 16

Compound | MIC [1] [µg/mL] | MIC [2] [µg/mL]
C=C[C@@H](CCNC(=N)CF)NCc1ccc(-n2cc3cc(-c4cc(CCC[C@@H](N)C5CC5)cc(Cl)c4F)[nH]c3nc2=O)cc1 [Compound 89] | ≤ 16 | ≤ 16
C=C[C@@H](CCNC(C)=N)N[C@@H](C)c1ccc(-n2cc3cc(-c4cc(CCC[C@@H](N)C5CC5)cc(Cl)c4F)[nH]c3nc2=O)cc1 [Compound 164] | ≤ 16 | ≤ 16
CSc1cc(-n2cc3cc(-c4cc(CCC[C@@H](N)C5CC5)cc(C(F)(F)F)c4F)[nH]c3nc2=O)ccc1[C@@H]1CCC[C@@H](CCNC(C)=N)N1 [Compound 251] | ≤ 16 | ≤ 16
C[C@H](N)CCCc1cc(Cl)c(F)c(-c2cc3cn(-c4ccc([C@@H]5CNC[C@H](CCNC(=N)CF)O5)cc4)c(=O)nc3[nH]2)c1 [Compound 28] | ≤ 16 | ≤ 16
CC(=N)NCC[C@@H]1CCC[C@@H](c2ccc(-n3cc4cc(-c5cc(CCC[C@@H](N)C6CC6)cc(C(F)(F)F)c5)[nH]c4nc3=O)cc2)N1CCCF [Compound 330] | ≤ 16 | ≤ 16
CC(=N)NCC[C@@H]1CCC[C@@H](c2ccc(-n3cc4cc(-c5cc(CCC[C@@H](N)C6CC6)cc(C(F)(F)F)c5F)[nH]c4nc3=O)cc2F)N1 [Compound 228] | ≤ 16 | ≤ 16
CC(=N)NCC[C@H](CO)N[C@@H](C)c1ccc(-n2cc3cc(-c4cc(CCC[C@H](C)N)cc(Cl)c4F)[nH]c3nc2=O)cc1F [Compound 177] | ≤ 16 | ≤ 16
CSc1cc(-n2cc3cc(-c4cc(CCC[C@@H](N)C5CC5)cc(Cl)c4F)[nH]c3nc2=O)cc(F)c1[C@@H]1CCC[C@@H](CCNC(C)=N)N1 [Compound 275] | ≤ 16 | ≤ 16
C[C@H](N)CCCc1cc(Cl)c(F)c(-c2cc3cn(-c4ccc([C@@H](C)NCCCNC(=N)CF)c(F)c4)c(=O)nc3[nH]2)c1 [Compound 114] | ≤ 16 | ≤ 16
C=C[C@@H](CCNC(C)=N)OCc1ccc(-n2cc3cc(-c4cc(CCC[C@H](C)N)cc(Cl)c4F)[nH]c3nc2=O)cc1 [Compound 3] | ≤ 16 | ≤ 16
CC(=N)NCC[C@H](CN)NCc1ccc(-n2cc3cc(-c4cc(CCC[C@H](C)N)cc(Cl)c4F)[nH]c3nc2=O)cc1 [Compound 17] | ≤ 16 | ≤ 16
CC(=N)NCC[C@@H]1CCC[C@@H](c2ccc(-n3cc4cc(-c5cc(CCC[C@@H]6COCCN6)cc(Cl)c5F)[nH]c4nc3=O)cc2)N1 [Compound 226] | ≤ 16 | ≤ 16
CC(=N)NCC[C@@H]1CCC[C@@H](c2ccc(-n3cc4cc(-c5cc(CCC[C@@H](N)C6CC6)cc(Cl)c5F)[nH]c4nc3=O)cc2C)N1 [Compound 239] | ≤ 16 | ≤ 16
CC(=N)NCC[C@@H]1CCC[C@@H](c2ccc(-n3cc4cc(-c5cc(CCC[C@@H](N)C6CC6)cc(Cl)c5F)[nH]c4nc3=O)cc2)N1CCCF [Compound 334] | ≤ 16 | ≤ 16
CC(=N)NCCCN[C@@H](C)c1ccc(-n2cc3cc(-c4cc(CCCC5(N)CC5)cc(Cl)c4F)[nH]c3nc2=O)cc1 [Compound 131] | ≤ 16 | ≤ 16
CSc1cc(-n2cc3cc(-c4cc(CCC[C@@H]5COCCN5)cc(Cl)c4F)[nH]c3nc2=O)ccc1[C@@H]1CCC[C@@H](CCNC(C)=N)N1 [Compound 260] | ≤ 16 | ≤ 16
C=C[C@H](N)CCCc1cc(Cl)c(F)c(-c2cc3cn(-c4cc(F)c([C@@H]5CCC[C@@H](CCNC(C)=N)N5)c(OC)c4)c(=O)nc3[nH]2)c1 [Compound 320] | ≤ 16 | ≤ 16
CC(=N)NCC[C@@H]1CCC[C@@H](c2ccc(-n3cc4cc(-c5cc(CCC[C@H](C)N)cc(Cl)c5F)[nH]c4nc3=O)cc2)N1Cc1cocn1 [Compound 278] | ≤ 16 | ≤ 16
COC[C@H](N)CCCc1cc(Cl)c(F)c(-c2cc3cn(-c4ccc([C@@H]5CCC[C@@H](CCNC(C)=N)N5)c(F)c4)c(=O)nc3[nH]2)c1 [Compound 171] | ≤ 16 | ≤ 16
CC(=N)NCC[C@@H]1CCC[C@@H](c2ccc(-n3cc4cc(-c5cc(CCCC6(N)CC6)cc(Cl)c5F)[nH]c4nc3=O)cc2)N1 [Compound 147] | ≤ 16 | ≤ 16
C=C[C@@H](N)CCCc1cc(Cl)c(F)c(-c2cc3cn(-c4ccc(CN[C@H](C=C)CCNC(C)=N)cc4)c(=O)nc3[nH]2)c1 [Compound 31] | ≤ 16 | ≤ 16
C=C[C@@H](CCNC(=N)CCOCC)NCc1ccc(-n2cc3cc(-c4cc(CCC[C@H](C)N)cc(Cl)c4F)[nH]c3nc2=O)cc1 [Compound 52] | ≤ 16 | ≤ 16
